Source: PMC6978363, “Chaperone mediated detection of small molecule target binding in cells” (Nature Communications, 2020)

How the values were obtained:
Test in all cases: biochemical
Settings in all cases: read-out: % Inhibition (at 10mM)
BrSK1 = BrSK1 (Homo sapiens, UniProt Q8TDC3)
CHK2 = target: T1, CHK2 (Homo sapiens, UniProt O96017)
T1 construct: gene CHEK2

CK2_alpha1 = target: T2, CK2_alpha1 (Homo sapiens, UniProt P68400)
T2 construct: gene CSNK2A1

CaMKII_beta = target: T3, CaMKII_beta (Homo sapiens, UniProt Q13554)
T3 construct: gene CAMK2B

DMPK2 = target: T4, DMPK2 (Homo sapiens, UniProt Q6DT37)
T4 construct: gene CDC42BPG

ERK5 = target: T5, ERK5 (Homo sapiens, UniProt Q13164)
T5 construct: gene MAPK7

EphA1 = EphA1 (Homo sapiens, UniProt P21709)
EphB1 = EphB1 (Homo sapiens, UniProt P54762)
FAK = target: T6, FAK (Homo sapiens, UniProt Q05397)
T6 construct: gene PTK2

FGFR3 = FGFR3 (Homo sapiens, UniProt P22607)
GRK2 = GRK2 (Homo sapiens, UniProt P25098)
GRK6 = GRK6 (Homo sapiens, UniProt P43250)
GSK3_beta = target: T7, GSK3_beta (Homo sapiens, UniProt P49841)
T7 construct: gene GSK3B

HIPK3 = HIPK3 (Homo sapiens, UniProt Q9H422)
JAK1 = JAK1 (Homo sapiens, UniProt P23458)
KSR2 = KSR2 (Homo sapiens, UniProt Q6VAB6)
MARK3 = MARK3 (Homo sapiens, UniProt P27448)
MARK4 = MARK4 (Homo sapiens, UniProt Q96L34)
MKNK1 = MKNK1 (Homo sapiens, UniProt Q9BUB5)
MRCK_beta = target: T8, MRCK_beta (Homo sapiens, UniProt Q9Y5S2)
T8 construct: gene CDC42BPB

MSK2 = target: T9, MSK2 (Homo sapiens, UniProt O75676)
T9 construct: gene RPS6KA4
T9 sequence (O75676 whole entry): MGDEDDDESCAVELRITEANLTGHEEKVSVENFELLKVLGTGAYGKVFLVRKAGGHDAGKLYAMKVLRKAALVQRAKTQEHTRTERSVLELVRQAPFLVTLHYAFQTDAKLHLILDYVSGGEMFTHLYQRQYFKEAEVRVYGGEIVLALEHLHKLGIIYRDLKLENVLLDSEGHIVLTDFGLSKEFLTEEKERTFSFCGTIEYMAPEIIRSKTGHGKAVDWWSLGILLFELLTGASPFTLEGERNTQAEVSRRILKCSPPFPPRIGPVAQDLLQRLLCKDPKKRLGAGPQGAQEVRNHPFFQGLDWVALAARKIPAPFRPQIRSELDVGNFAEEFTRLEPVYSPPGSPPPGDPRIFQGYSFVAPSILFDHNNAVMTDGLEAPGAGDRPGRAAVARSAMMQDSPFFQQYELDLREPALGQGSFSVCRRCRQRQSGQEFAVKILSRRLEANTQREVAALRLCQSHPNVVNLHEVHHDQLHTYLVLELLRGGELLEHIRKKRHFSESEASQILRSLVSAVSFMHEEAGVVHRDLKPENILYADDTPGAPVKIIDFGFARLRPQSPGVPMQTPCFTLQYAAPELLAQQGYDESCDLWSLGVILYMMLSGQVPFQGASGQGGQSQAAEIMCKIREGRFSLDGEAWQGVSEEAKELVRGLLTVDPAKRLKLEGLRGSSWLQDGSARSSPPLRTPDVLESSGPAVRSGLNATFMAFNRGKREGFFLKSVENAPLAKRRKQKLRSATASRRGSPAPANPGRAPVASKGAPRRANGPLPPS

MYLK2(skMLCK) = MYLK2(skMLCK) (Homo sapiens, UniProt Q9H1R3)
MYLK2(skMLCK), sequence (Q9H1R3 whole entry): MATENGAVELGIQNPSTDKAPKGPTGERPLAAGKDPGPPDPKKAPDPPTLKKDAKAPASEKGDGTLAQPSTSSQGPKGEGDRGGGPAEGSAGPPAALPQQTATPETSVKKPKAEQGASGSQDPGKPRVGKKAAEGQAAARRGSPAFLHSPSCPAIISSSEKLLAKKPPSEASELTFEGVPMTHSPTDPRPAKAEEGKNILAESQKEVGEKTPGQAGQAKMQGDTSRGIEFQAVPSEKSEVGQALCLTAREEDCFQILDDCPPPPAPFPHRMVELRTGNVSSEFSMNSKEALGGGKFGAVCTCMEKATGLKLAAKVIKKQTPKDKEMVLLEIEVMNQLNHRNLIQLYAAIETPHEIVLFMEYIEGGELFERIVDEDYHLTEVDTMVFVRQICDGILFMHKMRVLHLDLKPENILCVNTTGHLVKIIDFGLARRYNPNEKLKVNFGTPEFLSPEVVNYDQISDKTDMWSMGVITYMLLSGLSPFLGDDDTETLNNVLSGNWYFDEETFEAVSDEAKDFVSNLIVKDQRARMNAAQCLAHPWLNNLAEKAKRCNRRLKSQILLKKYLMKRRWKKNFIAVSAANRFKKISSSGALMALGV

NEK1 = NEK1 (Homo sapiens, UniProt Q96PY6)
NEK7 = NEK7 (Homo sapiens, UniProt Q8TDX7)
PAK6 = PAK6 (Homo sapiens, UniProt Q9NQU5)
PIM2 = PIM2 (Homo sapiens, UniProt Q9P1W9)
PKG1_alpha = target: T10, PKG1_alpha (Homo sapiens, UniProt Q13976)
T10 construct: gene PRKG1; isoform alpha

PLK3 = PLK3 (Homo sapiens, UniProt Q9H4B4)
PhK_gamma2 = target: T11, PhK_gamma2 (Homo sapiens, UniProt P15735)
T11 construct: gene PHKG2
T11 sequence (P15735 whole entry): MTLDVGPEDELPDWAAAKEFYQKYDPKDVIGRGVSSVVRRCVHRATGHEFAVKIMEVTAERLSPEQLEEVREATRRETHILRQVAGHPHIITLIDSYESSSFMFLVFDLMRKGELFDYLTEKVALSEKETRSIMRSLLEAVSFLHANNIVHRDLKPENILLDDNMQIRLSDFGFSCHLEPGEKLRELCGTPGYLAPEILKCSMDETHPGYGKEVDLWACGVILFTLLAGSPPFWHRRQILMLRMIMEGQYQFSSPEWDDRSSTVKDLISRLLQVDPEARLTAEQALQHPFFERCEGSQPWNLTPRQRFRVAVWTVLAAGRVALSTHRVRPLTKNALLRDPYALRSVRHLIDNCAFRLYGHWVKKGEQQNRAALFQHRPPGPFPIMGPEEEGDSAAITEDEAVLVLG

Ros = target: T12, Ros (Homo sapiens, UniProt P08922)
T12 construct: gene ROS1
T12 sequence (P08922 whole entry): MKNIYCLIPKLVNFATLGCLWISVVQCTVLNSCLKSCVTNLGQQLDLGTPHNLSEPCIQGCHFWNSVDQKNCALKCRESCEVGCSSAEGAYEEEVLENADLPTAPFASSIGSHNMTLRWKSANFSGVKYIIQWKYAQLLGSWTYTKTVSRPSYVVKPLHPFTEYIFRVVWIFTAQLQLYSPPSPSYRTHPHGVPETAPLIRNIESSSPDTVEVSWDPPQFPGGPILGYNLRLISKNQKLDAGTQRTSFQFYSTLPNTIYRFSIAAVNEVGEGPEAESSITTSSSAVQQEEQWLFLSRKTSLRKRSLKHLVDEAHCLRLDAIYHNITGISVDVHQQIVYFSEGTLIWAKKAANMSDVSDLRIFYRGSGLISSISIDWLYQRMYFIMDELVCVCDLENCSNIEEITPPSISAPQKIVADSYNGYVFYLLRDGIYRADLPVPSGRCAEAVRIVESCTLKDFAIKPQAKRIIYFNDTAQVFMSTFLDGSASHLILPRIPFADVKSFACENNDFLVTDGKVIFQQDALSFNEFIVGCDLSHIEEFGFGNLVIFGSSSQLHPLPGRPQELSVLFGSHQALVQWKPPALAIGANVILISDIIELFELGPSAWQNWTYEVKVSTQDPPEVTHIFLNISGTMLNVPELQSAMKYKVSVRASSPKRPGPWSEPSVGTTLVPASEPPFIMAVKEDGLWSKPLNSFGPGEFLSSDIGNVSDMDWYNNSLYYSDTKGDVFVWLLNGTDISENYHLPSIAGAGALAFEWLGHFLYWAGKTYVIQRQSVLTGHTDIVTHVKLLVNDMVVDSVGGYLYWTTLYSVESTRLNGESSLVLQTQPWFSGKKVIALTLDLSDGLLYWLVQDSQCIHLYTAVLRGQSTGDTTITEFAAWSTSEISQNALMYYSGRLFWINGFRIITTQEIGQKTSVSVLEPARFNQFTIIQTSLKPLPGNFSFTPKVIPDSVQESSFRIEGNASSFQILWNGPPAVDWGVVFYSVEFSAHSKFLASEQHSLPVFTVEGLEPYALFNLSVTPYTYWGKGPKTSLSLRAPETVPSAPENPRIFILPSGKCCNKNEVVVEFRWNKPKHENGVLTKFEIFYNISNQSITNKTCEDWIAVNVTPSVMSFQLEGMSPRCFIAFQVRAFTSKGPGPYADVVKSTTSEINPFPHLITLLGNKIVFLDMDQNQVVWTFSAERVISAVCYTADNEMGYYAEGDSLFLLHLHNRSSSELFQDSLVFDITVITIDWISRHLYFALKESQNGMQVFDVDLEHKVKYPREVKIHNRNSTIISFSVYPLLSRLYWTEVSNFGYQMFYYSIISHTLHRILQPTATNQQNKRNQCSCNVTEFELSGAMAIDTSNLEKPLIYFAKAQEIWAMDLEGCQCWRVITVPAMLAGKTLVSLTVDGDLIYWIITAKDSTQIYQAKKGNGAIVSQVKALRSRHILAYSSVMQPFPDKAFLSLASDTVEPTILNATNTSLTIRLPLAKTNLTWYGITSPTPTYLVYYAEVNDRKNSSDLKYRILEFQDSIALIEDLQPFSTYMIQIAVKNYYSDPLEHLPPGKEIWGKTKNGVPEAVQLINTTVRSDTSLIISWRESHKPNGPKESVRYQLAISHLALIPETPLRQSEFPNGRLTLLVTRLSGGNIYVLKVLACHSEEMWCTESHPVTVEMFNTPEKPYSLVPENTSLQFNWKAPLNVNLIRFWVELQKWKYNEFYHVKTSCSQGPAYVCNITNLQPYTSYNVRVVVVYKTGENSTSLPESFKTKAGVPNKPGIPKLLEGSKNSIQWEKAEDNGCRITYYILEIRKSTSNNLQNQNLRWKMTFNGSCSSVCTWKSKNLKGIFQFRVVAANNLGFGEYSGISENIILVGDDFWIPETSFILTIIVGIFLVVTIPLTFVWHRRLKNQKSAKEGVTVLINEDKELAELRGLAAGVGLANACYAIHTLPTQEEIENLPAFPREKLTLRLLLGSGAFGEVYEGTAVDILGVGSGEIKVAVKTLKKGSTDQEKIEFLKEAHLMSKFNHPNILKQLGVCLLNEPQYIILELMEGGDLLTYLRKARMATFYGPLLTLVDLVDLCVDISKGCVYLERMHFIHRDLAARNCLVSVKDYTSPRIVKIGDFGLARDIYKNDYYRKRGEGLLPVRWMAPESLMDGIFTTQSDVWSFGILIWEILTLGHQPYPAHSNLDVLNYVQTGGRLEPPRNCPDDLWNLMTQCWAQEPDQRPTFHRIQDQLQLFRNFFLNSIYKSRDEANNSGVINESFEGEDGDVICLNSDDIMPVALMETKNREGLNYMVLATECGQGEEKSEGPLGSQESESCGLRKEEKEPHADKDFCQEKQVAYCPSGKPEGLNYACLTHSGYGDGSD

SBK1 = SBK1 (Homo sapiens, UniProt Q52WX2)
SBK1, sequence (Q52WX2 whole entry): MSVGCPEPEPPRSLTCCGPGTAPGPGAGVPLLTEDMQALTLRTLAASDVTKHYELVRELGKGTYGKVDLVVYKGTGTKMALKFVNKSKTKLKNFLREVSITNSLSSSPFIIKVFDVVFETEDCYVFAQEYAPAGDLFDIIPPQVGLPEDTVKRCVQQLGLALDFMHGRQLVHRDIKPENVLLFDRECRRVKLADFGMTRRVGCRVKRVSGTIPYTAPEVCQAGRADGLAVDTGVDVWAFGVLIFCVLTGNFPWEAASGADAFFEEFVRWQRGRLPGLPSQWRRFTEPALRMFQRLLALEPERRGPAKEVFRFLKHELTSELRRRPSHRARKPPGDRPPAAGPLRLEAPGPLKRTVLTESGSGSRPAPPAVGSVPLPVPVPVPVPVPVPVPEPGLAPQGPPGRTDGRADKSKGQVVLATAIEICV

SGK3 = SGK3 (Homo sapiens, UniProt Q96BR1)
SRPK1 = SRPK1 (Homo sapiens, UniProt Q96SB4)
Syk = Syk (Homo sapiens, UniProt P43405)
TNK1 = TNK1 (Homo sapiens, UniProt Q13470)
Tie2 = target: T13, Tie2 (Homo sapiens, UniProt Q02763)
T13 construct: gene TEK

TrkC = target: T14, TrkC (Homo sapiens, UniProt Q16288)
T14 construct: gene NTRK3

Yes = target: T15, Yes (Homo sapiens, UniProt P07947)
T15 construct: gene YES1
T15 sequence (P07947 whole entry): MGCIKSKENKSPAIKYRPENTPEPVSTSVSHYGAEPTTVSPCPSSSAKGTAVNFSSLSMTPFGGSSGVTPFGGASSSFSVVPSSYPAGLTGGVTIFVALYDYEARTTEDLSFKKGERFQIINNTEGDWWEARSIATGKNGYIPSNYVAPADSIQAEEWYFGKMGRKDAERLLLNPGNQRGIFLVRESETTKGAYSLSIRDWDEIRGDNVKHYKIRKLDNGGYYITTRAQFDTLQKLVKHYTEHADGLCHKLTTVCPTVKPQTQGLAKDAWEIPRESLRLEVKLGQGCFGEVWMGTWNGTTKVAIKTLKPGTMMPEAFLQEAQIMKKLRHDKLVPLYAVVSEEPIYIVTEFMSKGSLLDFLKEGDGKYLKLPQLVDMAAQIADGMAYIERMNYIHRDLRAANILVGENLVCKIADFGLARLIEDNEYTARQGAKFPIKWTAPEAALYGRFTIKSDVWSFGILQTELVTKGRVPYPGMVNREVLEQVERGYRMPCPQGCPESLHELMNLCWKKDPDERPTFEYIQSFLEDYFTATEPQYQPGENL

- inhibition (BrSK1): 5%
- inhibition (CHK2): 20%
- inhibition (CK2_alpha1): -2.5%
- inhibition (CaMKII_beta): 24.5%
- inhibition (DMPK2): 2%
- inhibition (ERK5): 0.5%
- inhibition (EphA1): 7%
- inhibition (EphB1): -6%
- inhibition (FAK): 7.5%
- inhibition (FGFR3): -6%
- inhibition (GRK2): 0%
- inhibition (GRK6): -1.5%
- inhibition (GSK3_beta): 9%
- inhibition (HIPK3): 0%
- inhibition (JAK1): 0%
- inhibition (KSR2): 0%
- inhibition (MARK3): 6.5%
- inhibition (MARK4): 3.5%
- inhibition (MKNK1): 6%
- inhibition (MRCK_beta): 1.5%
- inhibition (MSK2): 9.5%
- inhibition (MYLK2(skMLCK)): -3%
- inhibition (NEK1): 1.5%
- inhibition (NEK7): 7%
- inhibition (PAK6): 5.5%
- inhibition (PIM2): 5.5%
- inhibition (PKG1_alpha): 0%
- inhibition (PLK3): -8.5%
- inhibition (PhK_gamma2): -0.5%
- inhibition (Ros): 7.5%
- inhibition (SBK1): 8.5%
- inhibition (SGK3): 2%
- inhibition (SRPK1): 10.5%
- inhibition (Syk): 3.5%
- inhibition (TNK1): 12%
- inhibition (Tie2): -6%
- inhibition (TrkC): 6%
- inhibition (Yes): 83%
Compound: CC(C)(O)CC(=O)NCCn1ccc2ncnc(Nc3ccc(Oc4cccc(C(F)(F)F)c4)c(Cl)c3)c21 [TAK-285]
